We go through 15 compounds from article PMC8994207 (Journal of medicinal chemistry, 2021).

pEC50: −log10 of the molar value. “Also recorded” adds a separate entry of the source. Like-named read-outs stand apart in the source and are kept apart here.

The conditions of series [1]: cited from earlier work.
Series [2] concerns OX1R. As to conditions: read-out: EC50 at OX1R; weak agonist of both OX receptors; cited from earlier work.
In series [3] the test system is OX2R. As to conditions: read-out: EC50 at OX2R; weak agonist of both OX receptors; cited from earlier work.
Series [4] deals with rats. As to conditions: EEG changes, locomotor activity, startle response latency; cited from earlier work.
Series [5] deals with mice. As to conditions: cited from earlier work.
Series [6] deals with T1, human OX1R (Homo sapiens, UniProt O43613).
T1 sequence (O43613 1-425): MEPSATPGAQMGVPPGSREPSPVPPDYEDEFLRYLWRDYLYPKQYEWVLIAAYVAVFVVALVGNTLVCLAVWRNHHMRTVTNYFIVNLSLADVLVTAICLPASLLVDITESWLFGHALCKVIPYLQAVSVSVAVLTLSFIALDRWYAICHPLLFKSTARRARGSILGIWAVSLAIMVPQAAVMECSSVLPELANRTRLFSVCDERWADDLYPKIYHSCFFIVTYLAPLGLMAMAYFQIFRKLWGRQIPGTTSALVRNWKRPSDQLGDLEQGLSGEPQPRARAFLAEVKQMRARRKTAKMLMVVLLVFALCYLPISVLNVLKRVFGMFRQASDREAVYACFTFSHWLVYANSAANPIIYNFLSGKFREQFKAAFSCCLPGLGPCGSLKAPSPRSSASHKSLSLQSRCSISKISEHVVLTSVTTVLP
The series is described as follows: OX1R calcium mobilization assay. Particulars: for agonist activity at OX1R (in words): calcium mobilization. A general note: Calcium assays in cells follow changes in intracellular calcium, usually with a dye or a luminescent sensor.

In series [7] the target is T2, human OX2R (Homo sapiens, UniProt O43614).
T2 sequence (O43614 1-444): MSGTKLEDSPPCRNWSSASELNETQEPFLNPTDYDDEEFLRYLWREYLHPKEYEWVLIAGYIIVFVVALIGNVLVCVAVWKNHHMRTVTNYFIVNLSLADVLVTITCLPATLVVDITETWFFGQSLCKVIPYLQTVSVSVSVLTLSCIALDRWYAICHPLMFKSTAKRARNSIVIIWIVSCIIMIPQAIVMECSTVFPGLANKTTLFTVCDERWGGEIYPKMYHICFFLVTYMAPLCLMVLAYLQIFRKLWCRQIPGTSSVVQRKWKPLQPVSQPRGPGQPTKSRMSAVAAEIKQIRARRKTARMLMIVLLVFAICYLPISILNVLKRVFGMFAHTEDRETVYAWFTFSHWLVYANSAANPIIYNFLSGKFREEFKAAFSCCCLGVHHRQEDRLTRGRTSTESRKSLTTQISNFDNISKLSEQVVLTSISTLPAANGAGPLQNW
The series can be described thus: OX2R calcium mobilization assay. Particulars: for agonist activity at OX2R (in words): calcium mobilization.

The subject of series [8] is 12-month old mice. The series can be described thus: Sleep modulation study, continuous EEG/EMG recordings. Format: in vivo.
[9] abbreviates: i.c.v. 30, 100, 300 nmol, light phase, up to 3 h post injection.
[10] abbreviates: i.p. 40 and 60 mg/kg, 6 h into the light phase, up to 3 h, mice.
The mark [11] stands for this setting: 40 mg/kg i.p., 4 h post-injection, vs saline.
Setting [12] is: 40 mg/kg i.p., lights-on phase, 12-month old mice, 0-4 h post-injection, vs vehicle.
Setting [13] is: i.p. injection, 12-month old mice.

For the compound `Cc1ccc(Cn2c(=N)n(CC(O)c3ccc(Cl)c(Cl)c3)c3ccccc32)cc1` (stereo not shown) [compound 1], in series [1], the cytotoxicity result is given as “OX receptor independent cytotoxicity”. The negative logarithm of the EC50 (pEC50) in series [2] and in series [3] was under 5.49 throughout.
Consider `COc1ccc(-c2cccc(C(=O)N(C)C)c2)cc1S(=O)(=O)Nc1cccc(NCCNC(=O)c2ccccc2N(C)C)c1` [compound 2, 3’-(N-(3-((2-(2-(dimethylamino)benzamido)ethyl)amino)phenyl)sulfamoyl)-4’-methoxy-N,-N-dimethyl-[1,1’-biphenyl]-3-carboxamide], for which the morphine-induced sedative effects entry in series [4] is listed as “attenuated”. Also, in series [5] (setting [9]), the “percent time in NREM sleep” value is recorded as “decreased” and the time in wakefulness result is reported as “increased”. Besides, in series [5] (i.p. 20 mg/kg), the sleep/wake parameters result is on record as “did not have any effect”. For the same compound, in series [5] (i.p. 40 mg/kg, mice), the “percent time in NREM sleep” value is reported as “reduced”. Also, in series [5] (setting [10]), the “percent time in REM sleep” value is recorded as “decreased” and the “percent time in wakefulness” value is given as “increased”. Also, the wake time entry in series [5] (i.p. 40 or 60 mg/kg) is reported as “increased”. For the same compound, the “direct transitions from wakefulness to REM sleep” value in series [5] (i.p. 40 or 60 mg/kg, for 3 hours) is on record as “decreased”. Moreover, the cataplexy-like episodes entry in series [5] (orexin knock-out and orexin neuron-ablated mice) is recorded as “suppressed”. Further, the wakefulness entry in series [5] (wild-type mice, i.c.v. 30–300 nmol and/or i.p. 40 mg/kg, hydrochloride salt) is recorded as “promoted wakefulness”.
As to `CCCNC(=O)c1cccc(-c2ccc(OC)c(S(=O)(=O)Nc3cccc(NCCNC(=O)c4ccccc4N(C)C)c3)c2)c1` [compound 9, 3’-(N-(3-((2-(2-(dimethylamino)benzamido)ethyl)amino)phenyl)sulfamoyl)-4’-methoxy-N-p-ropyl-[1,1’-biphenyl]-3-carboxamide], the “agonist activity at OX1R (in words)” value in series [6] was “no activity”.
Still for that read-out and setting: with `COc1ccc(-c2cccc(CN(C)C)c2)cc1S(=O)(=O)Nc1cccc(NCCNC(=O)c2ccccc2N(C)C)c1` [compound 10, 2-(Dimethylamino)-N-(2-((3-((3’-((dimethylamino)methyl)-4-methoxy-[1,1’-biphenyl])-3-sulfonamido)phenyl)amino)ethyl)benzamide] the entry was “no activity”.
Consider `COc1ccc(-c2cccc(C(=O)N(C)C)c2)cc1S(=O)(=O)Nc1cccc(N2CCN(C(=O)c3ccccc3N(C)C)CC2)c1` [compound 22, 3’-(N-(3-(4-(2-(dimethylamino)benzoyl)piperazin-1-yl)phenyl)sulfamoyl)-4’-methoxy-N,N-dimethyl-[1,1’-biphenyl]-3-carboxamide], for which the “agonist activity at OX1R (in words)” value in series [6] is listed as “all activities were lost”. Also, the “agonist activity at OX2R (in words)” value in series [7] is reported as “all activities were lost”.
`COc1ccc(-c2cccc(C(=O)N(C)C)c2)cc1S(=O)(=O)Nc1cccc(N2CCN(C(=O)c3cccc(C)c3)CC2)c1` [compound 23, 4’-Methoxy-N,N-dimethyl-3’-(N-(3-(4-(3-methylbenzoyl)piperazin-1-yl)phenyl)sulfamoyl)-[1,1’-biphenyl]-3-carboxamide]: the “agonist activity at OX1R (in words)” value in series [6] is recorded as “all activities were lost”. Moreover, the “agonist activity at OX2R (in words)” value in series [7] was “all activities were lost”.
Consider `COc1ccc(-c2cccc(C(=O)N(C)C)n2)cc1S(=O)(=O)Nc1cccc(NCCNC(=O)c2cccc(C)c2)c1` [compound 27, 6-(4-methoxy-3-(N-(3-((2-(3-methylbenzamido)ethyl)amino)phenyl)sulfamoyl)phenyl)-N,N-dimethylpicolinamide], for which the “agonist activity at OX1R (in words)” value in series [6] is on record as “full agonist”.
As to `COc1ccc(/C=C/C(=O)N(C)C)cc1S(=O)(=O)Nc1cccc(NCCNC(=O)c2cccc(C)c2)c1` [compound 31, (E)-N-(2-((3-((5-(3-(dimethylamino)-3-oxoprop-1-en-1-yl)-2-methoxyphenyl)sulfonamido)-phenyl)amino)ethyl)-3-methylbenzamide], in series [6], the “agonist activity at OX1R (in words)” value is “inactive”. Besides, the “agonist activity at OX2R (in words)” value in series [7] was “inactive”.
On to `COc1ccc(CCC(=O)N(C)C)cc1S(=O)(=O)Nc1cccc(NCCNC(=O)c2cccc(C)c2)c1` [compound 32, N-(2-((3-((5-(3-(dimethylamino)-3-oxopropyl)-2-methoxyphenyl)sulfonamido)phenyl)amin-o)ethyl)-3-methylbenzamide], for which, in series [6], the “agonist activity at OX1R (in words)” value was “inactive”. Moreover, the “agonist activity at OX2R (in words)” value in series [7] was “inactive”.
For `COc1ccc(-c2cccc(C(=O)NCCN(C)C)c2)cc1S(=O)(=O)Nc1cccc(NCCNC(=O)c2cccc(C)c2)c1` [compound 34, N-(2-(dimethylamino)ethyl)-4’-methoxy-3’-(N-(3-((2-(3-methylbenzamido)ethyl)amino)phenyl)sulfamoyl)-[1,1’-biphenyl]-3-carboxamide], in series [6], the “agonist activity at OX1R (in words)” value is listed as “complete loss of potency”.
As for `COc1ccc(-c2cccc(C(=O)N(C)Cc3ccccc3)c2)cc1S(=O)(=O)Nc1cccc(NCCNC(=O)c2cccc(C)c2)c1` [compound 36, N-Benzyl-4’-methoxy-N-methyl-3’-(N-(3-((2-(3-methylbenzamido)ethyl)amino)phenyl)sulfa-moyl)-[1,1’-biphenyl]-3-carboxamide], the “agonist activity at OX1R (in words)” value in series [6] was “no activity”.
Still for that read-out and setting: with `COc1ccc(-c2cccc(C(=O)NCc3ccccn3)c2)cc1S(=O)(=O)Nc1cccc(NCCNC(=O)c2cccc(C)c2)c1` [compound 38, 4’-Methoxy-3’-(N-(3-((2-(3-methylbenzamido)ethyl)amino)phenyl)sulfamoyl)-N-(pyridin-2-ylmethyl)-[1,1’-biphenyl]-3-carboxamide] the entry was “complete loss of the OX1R potency”.
Consider `COc1ccc(-c2cccc(C(=O)N(C)Cc3ccncc3)c2)cc1S(=O)(=O)Nc1cccc(NCCNC(=O)c2cccc(C)c2)c1` [compound 40, 4’-Methoxy-N-methyl-3’-(N-(3-((2-(3-methylbenzamido)ethyl)amino)phenyl)sulfamoyl)-N-(pyridin-4-ylmethyl)-[1,1’-biphenyl]-3-carboxamide], for which, in series [6], the “agonist activity at OX1R (in words)” value was “full agonist”. The Emax (commonly the size of the effect at its maximum, as opposed to the concentration needed) in series [6] (read-out: Emax at OX1R) is about 100%. For the same compound, in series [7], the “agonist activity at OX2R (in words)” value is listed as “full agonist”. Also, in series [7] (read-out: Emax at OX2R), the Emax was about 100%. Besides, in series [8] (setting [11]), the “duration of NREM sleep episodes” value is “increased”, the “duration of REM sleep episodes” value is “did not affect; also recorded: without effecting”, the “duration of wake episodes” value was “increased” and the “number of NREM sleep episodes” value is “Reduced”. In series [8] (setting [11]), the “number of REM sleep episodes” value is listed as “fewer episodes; also recorded: reduced”, the “number of state transitions” value is listed as “reduced” and the “number of wake episodes” value is “reduced”. Moreover, in series [8] (setting [12]), the “time spent in NREM sleep” value is recorded as “reduced; also recorded: decreased” and the “time spent in REM sleep” value was “reduced; also recorded: decreased”. Besides, in series [8] (40 mg/kg i.p., quiet lights-on phase, 12-month old mice, 0-4 h post-injection, vs vehicle), the “time spent in wakefulness” value is “significantly increased”. In series [8] (setting [13]), the sleep/wake consolidation entry is “increased; also recorded: improved” and the time asleep entry was “decreased”.
For the compound `COc1ccc(-c2cccc(C(=O)N(C)C)c2)cc1C(=O)Nc1cccc(NCCNC(=O)c2cccc(C)c2)c1` [compound 43, 4-Methoxy-N^3’,N^3’-dimethyl-N^3-(3-((2-(3-methylbenzamido)ethyl)amino)phenyl)-[1,1’-biph-enyl]-3,3’-dicarboxamide], in series [6], the “agonist activity at OX1R (in words)” value is “total loss of activity”.
Same read-out and setting: the entry for `COc1ccc(-c2cccc(C(=O)N(C)Cc3ccncc3)c2)cc1C(=O)Nc1cccc(NCCNC(=O)c2cccc(C)c2)c1` [compound 44, 4-Methoxy-N^3’-methyl-N^3-(3-((2-(3-methylbenzamido)ethyl)amino)phenyl)-N^3’-(pyridin-4-ylmethyl)-[1,1’-biphenyl]-3,3’-dicarboxamide] is “total loss of activity”.
